Measured values reported in US10377778B2, “Lead and thorium compounds” (Sciencons AS, priority 2017, dated 2019).

Tests used:
[1] = Stability testing of ^212Pb-labeled ligands in vitro (TLC radiochemical purity in PBS and FBS); assay type: physicochemical; conditions: 37° C.
Description: (§1) Thin layer chromatography (TLC) was performed using chromatography strips (model #150-772, Biodex Medical Systems Inc, Shirley, N.Y., USA). A formulation buffer (FB) consisting of 7.5% human serum albumin and 5 mM EDTA in DPBS and adjusted to approximately pH 7 with NaOH was mixed with the antibody conjugates in ratio 2:1 for at least 5 minutes before application to the strips to determine free radionuclide. A small beaker with about 0.5 ml of 0.9% NaCl was used to place strips with a sample spot in. To the strip was typically added 1-4 μl of sample at approximately 10% above the bottom of the strip. After the solvent front had moved to about 20% from the top of the strip, the strip was cut in half and each half was placed in a 5 ml test tube for counting. In this system radiolabeled ligand stays at the bottom half while radionuclide complexed with EDTA migrates to the upper half. It was verified that free cations of both ^212Pb and ^177Lu would complex with EDTA and moved to the top.
TLC analyses were performed at 1 h, 4 h, 24 h and 48 h of incubation. […]

C4-2 cells = experiment: Radiolytic stability: cell binding fraction after storage in ^224Ra solution; design: species or system human
Description: (§2) Initial activity in the solution was about 5 MBq/ml causing an absorbed radiation dose to the solution of about 1.8 Gy after 24 h and 3.3 Gy after 48 hours. The data (Table 2) indicate a slight decline at the longest exposure time but in general a relatively strong radiolytic resistance of the ligand was observed, which is compatible with centralized production and shipment to the end user ^224Ra-based generator solution with or without removal of ^224Ra prior to the administration of product.

[2] = Radiolytic stability: TLC measured RCP when kept in ^224Ra solution; assay type: physicochemical
Description: as §1, §2

[3] = system: C4-2 PSMA positive human prostate cells xenografts; experiment: Comparative therapy experiment in nude mice with C4-2 xenografts; assay type: in vivo; conditions: 52 MBq ^177Lu-PSMA-617 or 320 kBq ^212Pb-ligand 1
Description: Male nude mice were inoculated in the flanks with C4-2 PSMA positive human prostate cells and 2 weeks later when tumors were 5-7 mm in diameters. Groups of 8 animals each received saline, 52 MBq of ^177Lu-PSMA-617 or 320 kBq of ^212Pb-p-SCN-Bn-TCMC-PSMA ligand 1. Animals were sacrificed when tumor size reached 20 mm due to animal welfare requirements. […] For ^212Pb the effective half-life was assumed to be 10.6 h, 10% of injected dose per gram decays in tumor and 100% of radiation in a tumor is absorbed in the tumor, 100% retention of ^212Pb and daughters in the tumors and 8 MeV radiation energy per decay. The tumor dosimetry for the injected activities gave on average 35.9 Gy to tumors for ^177Lu-PSMA-617 and 2.06 Gy to tumors for ^212Pb-p-SCN-Bn-TCMC-PSMA ligand 1 groups respectively.

Compound: NC(=O)CN1CCN(CC(N)=O)CCN(CC(N)=O)C(Cc2ccc(NC(=S)NCC3CCC(C(=O)NC(Cc4ccc5ccccc5c4)C(=O)NCCCCC(NC(=O)NC(CCC(=O)O)C(=O)O)C(=O)O)CC3)cc2)CN(CC(N)=O)CC1.[212Pb+2] (stereo not drawn) [^212Pb-p-SCN-Bn-TCMC-PSMA ligand 1]
- Radiochemical purity ([1]; FBS, 1 h since start of incubation, in ^224Ra/^212Pb solution): 93.50%
- Radiochemical purity ([1]; FBS, 4 h): 94.18%
- Radiochemical purity ([1]; FBS, 24 h): 93.54%
- Radiochemical purity ([1]; FBS, 48 h): 90.81%
- Radiochemical purity ([1]; PBS, 1 h since start of incubation, in ^224Ra/^212Pb solution): 93.26%
- Radiochemical purity ([1]; PBS, 4 h): 95.04%
- Radiochemical purity ([1]; PBS, 24 h): 95.00%
- Radiochemical purity ([1]; PBS, 48 h): 95.11%
- Cell binding fraction (C4-2 cells; kept in ^224Ra solution 4 h): 52.3%
- Cell binding fraction (C4-2 cells; kept in ^224Ra solution 24 h (about 1.8 Gy)): 48.16%
- Cell binding fraction (C4-2 cells; kept in ^224Ra solution 48 h (about 3.3 Gy)): 37.18%
- TLC measured RCP ([2]; kept in ^224Ra solution 0.5 h): 93.81%
- TLC measured RCP ([2]; kept in ^224Ra solution 1 h): 92.84%
- TLC measured RCP ([2]; kept in ^224Ra solution 4 h): 94.75%
- TLC measured RCP ([2]; kept in ^224Ra solution 24 h): 94.85%
- TLC measured RCP ([2]; kept in ^224Ra solution 48 h): 94.85%
- Survival at day 30 after treatment ([3]; groups of 8, saline group 0%): 75%
- Median survival ([3]; saline group 15 days): > 30 days
